Assay results reported in PubChem BioAssay AID1645863 (Buhrlage Lab, Dana-Farber Cancer Institute and Novartis …, 2021).
Calls of active or inactive are those of the source. How the calls were made is not given here.

These molecules were tested against Ubiquitin carboxyl-terminal hydrolase 10 (Homo sapiens) (UniProt Q14694) (assay: primary hit verification, biochemical, ubiquitin-specific protease 10 deubiquitylase inhibitors, concentration-effect titration (AID 1645863;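 further: potency values describe inhibition of USP10 cleavage of a fluorogenic ubiquitin substrate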)). Settings: USP10 deubiquitinase enzymatic assay.
Ubiquitin carboxyl-terminal hydrolase 10 (Homo sapiens), sequence (Q14694 whole entry, looked up): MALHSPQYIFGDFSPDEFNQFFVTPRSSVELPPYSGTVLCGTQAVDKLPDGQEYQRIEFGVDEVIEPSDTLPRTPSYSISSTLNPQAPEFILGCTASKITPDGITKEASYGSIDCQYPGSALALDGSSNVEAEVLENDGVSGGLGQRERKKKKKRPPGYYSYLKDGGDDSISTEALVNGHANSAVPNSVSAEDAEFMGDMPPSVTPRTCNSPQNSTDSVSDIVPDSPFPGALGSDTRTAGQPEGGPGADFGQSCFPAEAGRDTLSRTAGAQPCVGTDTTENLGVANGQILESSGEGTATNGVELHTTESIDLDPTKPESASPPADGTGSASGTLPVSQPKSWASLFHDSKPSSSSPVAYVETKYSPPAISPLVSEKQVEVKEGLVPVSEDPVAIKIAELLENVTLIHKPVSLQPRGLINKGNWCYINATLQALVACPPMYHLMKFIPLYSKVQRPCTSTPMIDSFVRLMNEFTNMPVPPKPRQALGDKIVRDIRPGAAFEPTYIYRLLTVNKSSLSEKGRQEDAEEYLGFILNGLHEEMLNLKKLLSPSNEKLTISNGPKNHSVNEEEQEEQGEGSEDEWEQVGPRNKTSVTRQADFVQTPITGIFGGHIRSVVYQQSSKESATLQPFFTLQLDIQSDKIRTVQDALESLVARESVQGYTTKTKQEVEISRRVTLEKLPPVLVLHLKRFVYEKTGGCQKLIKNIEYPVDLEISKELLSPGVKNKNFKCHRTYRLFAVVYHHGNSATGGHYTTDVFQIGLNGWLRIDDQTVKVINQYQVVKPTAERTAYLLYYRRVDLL

| SMILES | IC50 |
| --- | --- |
| COc1ccc(Cl)cc1NC(=O)c1cc(-c2ccccn2)n[nH]1 | 9.33 µM |
| COc1ccc(/C=C/C(=O)Nc2nc3n(n2)C(c2ccccc2)CC(=O)N3)cc1 (stereo not given) | > 40 µM (inactive) |
| Cc1ccc(C)c(NC(=O)Cn2cc(C(=O)C3CC3)c3ccccc32)c1 | 15.4 µM |
| COc1ccc(Cl)cc1NC(=O)Cn1c(=O)n(CCC(=O)NC2CCCC2)c(=O)c2ccccc21 | > 40 µM (inactive) |
| CCC1OC(O)(C(C)C(O)C(C)C2OC(=O)/C(C)=C/C(C)=CC(C)C(O)C(C)C/C(C)=C/C=C/C2OC)CC(OC(=O)/C=C/C(=O)NC2=C(O)CCC2=O)C1C (stereo not given) | 16.6 µM |
| O=C(CSc1nnc2c3ccccc3nc(-c3ccco3)n12)N1CCCc2ccccc21 | 3.82 µM |
| Oc1cccc2nc3c(O)cccc3nc12 | 11.3 µM |
| Cc1nc(N2CCN(c3ccc(Cl)cc3)CC2)c2oc3ccccc3c2n1 | 17.7 µM |
| Cc1c(C(=O)NCc2cccc(Br)c2)oc2c1-c1[nH]ncc1CC2 | > 40 µM (inactive) |
| O=C(NCc1ccc(Cl)cc1)c1cc2c(s1)-c1ccccc1OC2 | > 40 µM (inactive) |
| Cc1ccc(NC(=O)Nc2nnc(CC(=O)NCc3ccccc3)s2)c(Cl)c1 | > 40 µM (inactive) |
| Cc1cc(Nc2cccc(Cl)c2)n2nc(-c3cccnc3)nc2n1 | > 40 µM (inactive) |
| O=C(c1ccco1)N1CCC2(CC1)CC1(CO2)Nc2ccccc2-n2cccc21 (stereo not given) | > 40 µM (inactive) |
| Cc1c(OCC(=O)NCc2ccccc2Cl)ccc2c3c(c(=O)oc12)CCC3 | > 40 µM (inactive) |
| O=c1cc(-c2ccc(O)c(O)c2)oc2cc(O[C@@H]3O[C@H](CO)[C@@H](O)[C@H](O)[C@H]3O)cc(O)c12 | 1.75 µM |
| Cc1nc2nc(C(c3ccccc3)c3ccccc3)[nH]n2c(=O)c1Cc1ccccc1 | > 40 µM (inactive) |
| O=S1(=O)CCN(CC2CCCO2)c2c(Oc3ccccc3)nc(F)c(Cl)c21 (stereo not given) | > 40 µM (inactive) |
| COc1cccc(CNc2ccc(-c3nc(-c4ccccc4)no3)nn2)c1 | > 40 µM (inactive) |
| Cc1cc(NS(=O)(=O)c2ccc(NC(=O)COc3ccc(Cl)cc3)cc2)no1 | > 40 µM (inactive) |
| Cc1ccc(CNC(=O)c2ccc3nn(CC(=O)Nc4ccccc4F)c(=O)n3c2)cc1 | > 40 µM (inactive) |
| O=C(Nc1ccccc1)Nc1ccc(F)c(-c2nnc(-c3ccccc3)o2)c1 | > 40 µM (inactive) |
| Cc1cc(OCC(=O)Nc2ccccc2C(=O)Nc2ccccc2)ccc1Cl | 24.6 µM |
| Cc1cccc(C)c1NC(=O)Cn1c(=O)n(CCCCC(=O)NCc2ccc3c(c2)OCO3)c(=O)c2ccccc21 | 22.3 µM |
| Nc1ccc2oc(-c3cccc(-c4nc5cc(N)ccc5o4)n3)nc2c1 | 26.6 µM |

| SMILES | IC50 |
| --- | --- |
| Cc1cc(=O)n(CC(=O)Nc2ccccc2C)c(Nc2ccc(F)cc2)n1 | 28.4 µM |
| CS(=O)(=O)c1cccc(C(=O)Nc2sc3c(c2C(N)=O)CCCC3)c1 | > 40 µM (inactive) |
| Cc1ccc(Nc2nc(NCC(=O)Nc3cc(C)ccc3C)nc(Nc3ccc(C)cc3)n2)cc1 | 32.8 µM |
| CCc1ccc(NC(=O)C(C)OC(=O)/C=C/c2ccc(S(=O)(=O)Nc3cccc(S(N)(=O)=O)c3)cc2)cc1 (stereo not given) | 21.7 µM |
| O=C(Nc1cccc([N+](=O)[O-])c1)Nc1ccc2snnc2c1 | > 40 µM (inactive) |
| Cc1cccc(NC(=O)Nc2nnc(CC(=O)NCc3ccccc3)s2)c1 | 17.4 µM |
| Cc1sc(NC(=O)c2ccc(S(=O)(=O)N(C)Cc3ccccc3)cc2)c(C(N)=O)c1C | > 40 µM (inactive) |
| COc1cccc(-c2cncc(C3CCN(S(=O)(=O)N(C)C)CC3)n2)c1 | > 40 µM (inactive) |
| CC(C)CC(NC(=O)c1ccc(Cl)cc1Cl)c1nc2ccccc2[nH]1 (stereo not given) | > 40 µM (inactive) |
| O=C(CCc1ccc(F)cc1)N1CCOC(CCc2cc(=O)[nH]cn2)C1 (stereo not given) | > 40 µM (inactive) |
| COc1ccc(C(=O)NC(Cc2ccccc2)c2nc3ccccc3[nH]2)c(OC)c1 (stereo not given) | > 40 µM (inactive) |
| O=c1c2cc(Br)ccc2[nH]c(=S)n1Cc1cccnc1 | > 40 µM (inactive) |
| Cc1cc(C(=O)CSc2nc3ccccc3[nH]2)c(C)n1Cc1ccco1 | > 40 µM (inactive) |
| COc1ccc(OC)c(NC(=O)c2sc(-c3ccccc3)nc2C)c1 | 37 µM |
| COc1cccc(NC(=O)c2oc3ccccc3c2NC(=O)COc2cccc(OC)c2)c1 | > 40 µM (inactive) |
| Cc1ccc(S(=O)(=O)NCc2ccc(C(=O)NCCc3ccc(S(N)(=O)=O)cc3)cc2)cc1 | > 40 µM (inactive) |
| Cc1ccc(C2SCC(=O)Nc3c2c(=O)[nH]n3C2CCCCC2)cc1 (stereo not given) | 28.8 µM |
| O=C(CCCC(=O)N(c1ccc2c(c1)OCCO2)C(C(=O)NC1CCCCC1)c1ccc(F)cc1)Nc1ccccn1 (stereo not given) | 27.6 µM |
| Cc1cc(NC(=O)Cn2c(=O)n(CCCCC(=O)NCc3ccco3)c(=O)c3ccccc32)ccc1Br | 14.6 µM |
| Cc1ccc(NC(=O)CSc2nnc(-c3n[nH]c4c3CCC4)n2N)cc1C | 26 µM |
| COc1ccc(-c2onc(C)c2C)cc1S(=O)(=O)NCc1ccc(F)cc1 | > 40 µM (inactive) |
| Cc1ccc(-n2nc(C(=O)Nc3ccc(C)cn3)c3ncn(C)c(=O)c32)cc1 | > 40 µM (inactive) |
| Cc1cccc(N2CCN(C(=O)c3nc4cccnc4n(C)c3=O)CC2)c1C | > 40 µM (inactive) |
| COc1cccc2cc(C(=O)Nc3nc(-c4ccncc4)cs3)oc12 | 9.63 µM |

| SMILES | IC50 |
| --- | --- |
| O=C(c1ccc(Cl)cc1)N(c1ccccn1)C1CCCCC1 | > 40 µM (inactive) |
| COc1cc(NC(=O)Cc2ccccc2)ccc1NC(=O)c1cc2ccccc2o1 | 28.1 µM |
| CCOC(=O)c1cc2c(ccn2-c2ccc(F)cc2)n1CC(=O)Nc1ccc2c(c1)OCCO2 | 30.3 µM |
| COc1ccc(NC(=O)Cn2cc(C(=O)c3ccc(C)cc3)c(=O)c3ccccc32)cc1 | 30.1 µM |
| COc1ccc(NC(=O)[C@H](C)NC(=O)c2cc3c(OC)cccc3[nH]2)cc1Cl | 37.9 µM |
| Cc1ccc(NC(=O)Nc2ccc(C)n(CC(=O)Nc3ccc(C)cc3C)c2=O)cc1 | 21.9 µM |
| O=C(NCCc1nc2ccccc2n1Cc1ccccc1F)c1ccc(Cl)cc1 | 24.4 µM |
| O=C(Cn1c(=O)[nH]c2c(-c3ccc(F)cc3)c[nH]c2c1=O)NCc1ccc(F)cc1 | > 40 µM (inactive) |
| COc1ccc(-c2cc(C(=O)Nc3ccnn3Cc3ccccc3)no2)cc1 | > 40 µM (inactive) |
| O=C(Nc1ccc(-n2cccc2)cc1)c1cccc([N+](=O)[O-])c1 | > 40 µM (inactive) |
| O=C(Nc1cccc(Cl)c1)c1cc(-c2cccnc2)n[nH]1 | > 40 µM (inactive) |
| CS(=O)(=O)c1cccc(-c2nnc(NC(=O)c3ccc(Cc4ccccc4)cc3)o2)c1 | > 40 µM (inactive) |
| Cc1cc(C)c(NC(=O)CSc2nc3nccnc3c(=O)n2Cc2ccccc2Cl)c(C)c1 | > 40 µM (inactive) |
| O=C(COc1ccc(Cl)cc1)Nc1noc(-c2ccccc2)n1 | 32.5 µM |
| COC(=O)c1ccc(NC(=O)/C=C/c2ccc(F)cc2)cc1 | > 40 µM (inactive) |
| CCOc1ccc(-n2ccnc(SCC(=O)Nc3ccccc3F)c2=O)cc1 | 39.1 µM |
| CCOc1ccc(NC(=O)Cn2c(=O)n(CCCCCC(=O)NCc3ccc(F)cc3)c(=O)c3sccc32)cc1 | 17.7 µM |
| Cc1ccc(NC(=O)Nc2ccc(C)n(CC(=O)Nc3cc(C)ccc3C)c2=O)cc1 | > 40 µM (inactive) |
| O=C(Nc1ccccc1-c1nc(-c2ccccn2)no1)c1cc(Cl)ccc1Cl | > 40 µM (inactive) |
| Cc1[nH]c2ccc(F)cc2c(=O)c1CN1CCCCC1 | > 40 µM (inactive) |
| COc1ccc(-c2c(NC(=O)C3COc4ccccc4O3)n[nH]c2C)cc1OC (stereo not given) | > 40 µM (inactive) |
| Cc1ccc(-c2cc(C(F)F)n3ncc(C(=O)Nc4ccc(O)cc4)c3n2)cc1 | 14.4 µM |
| Cc1nn(-c2ccccc2)c2c1N=C1C(Cl)=CC(Cl)=CN1C21C(=O)Nc2ccccc21 (stereo not given) | > 40 µM (inactive) |
| COc1cc(Cl)c(C)cc1NC(=O)Cn1c(=O)n(CC(=O)NCc2ccco2)c(=O)c2ccccc21 | 16.3 µM |

| SMILES | IC50 |
| --- | --- |
| CC(C)Cc1nc2sc3c(SCC(=O)N4CCC(C)CC4)ncnc3c2c2c1COC(C)(C)C2 | > 40 µM (inactive) |
| Nc1ncc(-c2ccc(F)cc2)c(C2CCCN(C(=O)c3ccn[nH]3)C2)n1 (stereo not given) | > 40 µM (inactive) |
| Cc1ccc(Nc2nc(Nc3cccc(F)c3)nc3nccnc23)c(C)c1 | > 40 µM (inactive) |
| COc1ccc(CC(=O)Nc2c(NCc3ccccc3)c3ccccc3oc2=O)cc1 | 38.4 µM |
| CC(C)CC(=O)Nc1cc(F)c2nc(N3CCOCC3)ccc2c1 | > 40 µM (inactive) |
| CCC(=O)Nc1nc2cc(NC(=O)Nc3ccccc3Cl)ccc2s1 | > 40 µM (inactive) |
| Cc1ccnc(NS(=O)(=O)c2ccc(NC(=O)c3ccc(S(=O)(=O)N(C)Cc4ccccc4)cc3)cc2)n1 | 35.4 µM |
| O=C1Cc2ccccc2C(=O)N1Cc1cccc(Cl)c1 | 24.1 µM |
| COc1ccc([C@H]2Oc3cc(OC)cc(O)c3C(=O)[C@@H]2[C@@H]2C(=O)c3c(O)cc(O)cc3O[C@H]2c2ccc(OC)cc2)cc1 | 18.5 µM |
| CCOC(=O)C1CCN(Cc2cc(=O)oc3cc(O)c(O)cc23)CC1 | 1.68 µM |
| O=C(NCc1ccc2c(c1)OCO2)c1[nH]nc2c1COc1ccccc1-2 | 15.2 µM |
| C[C@H](Cc1cc2c(cc1O)OCO2)[C@@H](C)Cc1cc2c(cc1O)OCO2 | 19.6 µM |
| CC1(C)Cc2c(c(-c3ccco3)nc3sc4c(SCCCc5ccccc5)ncnc4c23)CO1 | 29.1 µM |
| CCC(=O)Nc1nc2cc(NC(=O)Nc3cc(C)cc(C)c3)ccc2s1 | > 40 µM (inactive) |
| CC(C)=CCC/C(C)=C/COc1ccc(/C=C2\C(=O)N(O)[C@@H](C)C(=O)N2O)cc1 | 14.5 µM |
| O=C(Cn1nnc2ccccc21)Nc1nc(-c2ccc3c(c2)CCN3C(=O)c2ccccc2F)cs1 | 34.9 µM |
| COc1ccc(Cl)cc1NC(=O)COC(=O)c1cc2ccccc2oc1=O | 17.5 µM |
| O=c1cc(Cc2ccccc2)nc2c(-c3ccccc3)c(COc3ccccc3)[nH]n12 | inactive |
| Cc1cc(O)c(=O)cc2c1C[C@H]1CC(C)(C)/C=C/C[C@@]3(C)Oc4cc(=O)c(O)cc(C)c4C[C@@H]3C[C@H](O)[C@]1(C)O2 | > 40 µM (inactive) |
| COc1ccc(CCN2COc3c(cc(Cl)c4cccnc34)C2)cc1OC | > 40 µM (inactive) |
| Cc1ccc(Cn2cc(C(=O)Nc3ccccc3C(N)=O)ccc2=O)cc1 | 2.81 µM |
| COc1ccc2cc(C(=O)N3CCC(C(C)C(=O)NCc4cccc(F)c4)CC3)[nH]c2c1 (stereo not given) | 38 µM |
| Cn1c(=O)c2nc(-c3ccc(Cl)cc3)nnc2n(C)c1=O | 3.21 µM |
